For this experiment, the target named is recombinant human ACC2 (Homo sapiens (Human), UniProt O00763). Put plainly: Measurement of inhibitory activity on human ACC2 (MALDI-TOF MS, acetyl CoA to malonyl CoA conversion). The experiment is classed as biochemical. The source says:
Preparation 1: Preparation of Recombinant Human ACC2
After a cDNA encoding human ACC2 (27 amino acid residue to 2458 amino acid residues from the N-terminus) was cloned from human kidney cDNA library (Clontech), human ACC2 gene containing His-tag sequence at 5′ terminus was inserted into pFastBac1 (Invitrogen). Recombinant baculovirus was generated using Bac-to-Bac baculovirus expression system (Invitrogen) according to the manufacturer's protocol. To express human ACC2, Sf-9 cells were infected with recombinant baculovirus. After infected cells were disrupted, the filtrated lysate was subjected to Ni-affinity chromatography and anion-exchange chromatography. The fractions containing human ACC2 protein were pooled as recombinant human ACC2 solution.
The Measurement of Inhibitory Activity on Human ACC1 and the ACC2
Recombinant human ACC1 and recombinant human ACC2, which were prepared by the method mentioned above, were preincubated with assay buffer solution (50 mM HEPES-KOH (pH 7.4), 10 mM magnesium chloride, 6-10 mM potassium citrate, 4 mM reduced form of glutathione, 1.5 mg/ml bovine serum albumin) for one hour. Then, 0.2 μL of each this invention compound solution (in DMSO) were dispensed to 384-well microplate, 5 μL of the preincubated enzyme solution and 5 μL of substrate solution (50 mM HEPES-KOH (pH 7.4), 1 mM ATP, 0.8 mM acetyl CoA and 25-50 mM potassium bicarbonate) were added to microplate. After centrifugation and shaking, the reaction mixtures were incubated in a humidified box at room temperature for 1 to 3 hours. After the incubation, the enzyme reactions were stopped by the addition of EDTA. Then, after the samples were cocrystallized with CHCA (α-cyano-4-hydroxy cinnamic acid) matrices on MALDI target plate, by using the matrix assist laser […] time-of-flight mass spectrometer (MALDI-TOF MS), samples were measured in reflector negative mode. Deprotonated ions of acetyl CoA (AcCoA) of substrate and malonyl CoA (MalCoA) of the reaction product were detected, then, the conversion rates of acetyl CoA to malonyl CoA was calculated by the intensity of [MalCoA-H]−/(Intensity of [MalCoA-H]−+Intensity of [AcCoA-H]−) using each signal strength. […] In addition, potassium citrate concentrations in assay buffer solution, potassium hydrogen carbonate concentrations in substrate solution and incubation time were adjusted by each lot of enzyme.

Broadly, the IC50 is the point on the concentration scale where inhibition reaches its midpoint.

Sequence of recombinant human ACC2 (O00763 27-2458): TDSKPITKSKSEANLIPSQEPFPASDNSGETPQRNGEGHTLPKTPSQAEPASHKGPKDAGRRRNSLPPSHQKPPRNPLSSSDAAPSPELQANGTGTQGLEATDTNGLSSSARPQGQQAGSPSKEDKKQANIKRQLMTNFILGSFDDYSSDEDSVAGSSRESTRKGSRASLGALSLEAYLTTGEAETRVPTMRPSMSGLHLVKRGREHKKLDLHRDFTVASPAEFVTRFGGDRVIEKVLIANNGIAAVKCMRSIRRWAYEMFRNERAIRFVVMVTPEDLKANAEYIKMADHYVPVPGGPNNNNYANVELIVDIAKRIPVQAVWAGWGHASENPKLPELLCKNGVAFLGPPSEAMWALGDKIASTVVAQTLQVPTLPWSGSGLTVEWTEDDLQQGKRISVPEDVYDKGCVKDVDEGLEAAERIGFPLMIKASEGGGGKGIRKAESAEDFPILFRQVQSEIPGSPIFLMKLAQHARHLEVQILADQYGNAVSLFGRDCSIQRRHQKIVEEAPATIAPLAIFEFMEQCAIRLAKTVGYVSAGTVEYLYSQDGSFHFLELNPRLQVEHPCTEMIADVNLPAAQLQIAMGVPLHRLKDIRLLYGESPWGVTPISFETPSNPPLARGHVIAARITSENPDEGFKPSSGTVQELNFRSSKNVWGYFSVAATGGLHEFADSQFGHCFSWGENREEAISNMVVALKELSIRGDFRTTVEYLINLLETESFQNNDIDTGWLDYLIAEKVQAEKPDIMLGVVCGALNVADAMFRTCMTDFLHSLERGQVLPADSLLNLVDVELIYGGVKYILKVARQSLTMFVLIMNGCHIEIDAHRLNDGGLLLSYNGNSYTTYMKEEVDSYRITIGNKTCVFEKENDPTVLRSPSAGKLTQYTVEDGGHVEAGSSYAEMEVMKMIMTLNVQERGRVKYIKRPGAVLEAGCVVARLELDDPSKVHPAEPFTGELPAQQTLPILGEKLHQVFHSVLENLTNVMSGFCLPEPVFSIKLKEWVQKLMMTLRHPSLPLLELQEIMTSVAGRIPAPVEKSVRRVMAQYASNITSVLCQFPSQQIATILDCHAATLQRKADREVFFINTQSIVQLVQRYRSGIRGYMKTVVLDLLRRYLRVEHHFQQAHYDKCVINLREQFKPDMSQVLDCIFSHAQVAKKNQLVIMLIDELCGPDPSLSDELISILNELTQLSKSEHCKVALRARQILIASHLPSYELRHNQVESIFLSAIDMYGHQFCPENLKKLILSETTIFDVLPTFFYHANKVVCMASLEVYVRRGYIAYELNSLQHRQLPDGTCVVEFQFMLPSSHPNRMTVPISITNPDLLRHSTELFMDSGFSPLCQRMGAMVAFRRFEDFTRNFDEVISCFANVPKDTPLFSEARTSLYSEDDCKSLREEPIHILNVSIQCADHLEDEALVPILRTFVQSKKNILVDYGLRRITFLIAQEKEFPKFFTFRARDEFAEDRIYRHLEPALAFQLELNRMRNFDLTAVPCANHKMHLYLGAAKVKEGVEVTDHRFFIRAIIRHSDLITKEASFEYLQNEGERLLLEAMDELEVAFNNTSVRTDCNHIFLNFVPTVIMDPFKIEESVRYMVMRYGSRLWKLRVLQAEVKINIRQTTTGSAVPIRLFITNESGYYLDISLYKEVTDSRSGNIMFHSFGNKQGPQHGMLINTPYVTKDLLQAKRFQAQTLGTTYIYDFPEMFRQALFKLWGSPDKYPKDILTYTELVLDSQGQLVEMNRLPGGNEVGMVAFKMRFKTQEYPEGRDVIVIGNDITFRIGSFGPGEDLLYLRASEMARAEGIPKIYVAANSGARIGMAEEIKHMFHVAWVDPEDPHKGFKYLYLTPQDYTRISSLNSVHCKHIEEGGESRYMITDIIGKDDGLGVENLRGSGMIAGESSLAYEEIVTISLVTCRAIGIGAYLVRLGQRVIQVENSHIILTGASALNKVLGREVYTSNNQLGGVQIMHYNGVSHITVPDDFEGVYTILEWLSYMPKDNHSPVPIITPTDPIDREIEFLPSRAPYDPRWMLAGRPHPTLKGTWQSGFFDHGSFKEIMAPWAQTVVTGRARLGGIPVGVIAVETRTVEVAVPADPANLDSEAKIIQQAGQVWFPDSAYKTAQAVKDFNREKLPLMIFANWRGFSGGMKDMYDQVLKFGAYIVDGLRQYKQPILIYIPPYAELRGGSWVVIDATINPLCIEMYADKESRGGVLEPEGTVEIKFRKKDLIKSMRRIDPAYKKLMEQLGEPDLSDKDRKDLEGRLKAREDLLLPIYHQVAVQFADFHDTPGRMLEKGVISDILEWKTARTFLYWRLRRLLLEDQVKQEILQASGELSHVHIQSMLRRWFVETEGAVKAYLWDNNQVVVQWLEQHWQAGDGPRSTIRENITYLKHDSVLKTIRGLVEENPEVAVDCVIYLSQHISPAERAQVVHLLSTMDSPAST

Take `CC(=O)N[C@@H](C)CO[C@H]1CC[C@H](Oc2ccc3nc(C(C)C)oc3c2Cl)CC1` [Compound I-064]: the IC50 (Table 154) stood at 1120 nM.

For the compound `CCOc1nc2cc(Cl)c(Oc3cnc(OC[C@H](C)NC(C)=O)cn3)cc2s1` [Compound I-065], the IC50 (Table 154) came out at 89 nM. `CC(=O)N[C@@H](C)CO[C@H]1CC[C@H](Oc2ccc3sc(C(C)C)nc3c2Cl)CC1` [Compound I-066]: the IC50 (Table 154) is 1300 nM.

Regarding `CCOc1nc2ccc(Oc3cnc(OC[C@H](C)NC(C)=O)cn3)c(C#N)c2s1` [Compound I-068], under “Table 154”, the IC50 stood at 25 nM. Turning to `CCOc1ncc2c(Cl)c(Oc3cnc(OC[C@H](C)NC(C)=O)cn3)ccc2n1` [Compound I-069], the IC50 (Table 154) came to 1400 nM. `CC(=O)N[C@@H](C)COc1cnc(Oc2ccc3sc(C(C)C)nc3c2Cl)cn1` [Compound I-070]: the IC50 (Table 154) is 469 nM. Consider `CCOc1nc2ccc(Oc3cnc(OC[C@H](C)NC(=O)CO)cn3)c(Cl)c2s1` [Compound I-071], for which the IC50 (Table 154) was found to be 54 nM. On the same count and under the same terms, for `CC(=O)N[C@@H](C)COc1cnc(Oc2ccc3nc(N4CC(F)(F)C4)ncc3c2Cl)cn1` [Compound I-072] the value was 154 nM.

Consider `CC(=O)N[C@@H](C)COc1cnc(Oc2ccc3nc(N4CCC(F)(F)CC4)ncc3c2Cl)cn1` [Compound I-073], for which the IC50 (Table 154) came to 221 nM. Same read-out and setting: for `CCOc1nc2ccc(O[C@H]3C[C@H](OC[C@H](C)NC(C)=O)C3)c(F)c2s1` [Compound I-074] the value was 85 nM. On the same count and under the same terms, with `CCOc1nc2ccc(O[C@H]3C[C@H](OC[C@H](C)NC(C)=O)C3)c(Cl)c2s1` [Compound I-075] the figure was 20 nM; with `CCOc1nc2ccc(O[C@H]3C[C@@H](OC[C@H](C)NC(C)=O)C3)c(F)c2s1` [Compound I-076], 102 nM.

Regarding `CCOc1nc2ccc(O[C@H]3C[C@@H](OC[C@H](C)NC(C)=O)C3)c(Cl)c2s1` [Compound I-077], the IC50 (Table 154) stood at 168 nM.

For `CCOc1nc2ccc(O[C@H]3CC[C@](C)(OC[C@H](C)NC(C)=O)CC3)c(F)c2s1` [Compound I-078], the 50% inhibitory concentration (IC50) (Table 154) stood at 189 nM. Regarding `CC(=O)N[C@@H](C)COc1cnc(Oc2ccc3c(c2Cl)OCCN(CC(F)(F)F)C3=O)cn1` [Compound I-080], the IC50 (Table 154) worked out at 1290 nM. With `CC(=O)N[C@@H](C)COc1cnc(Oc2ccc3c(c2Cl)OCCN(C(C)C)C3=O)cn1` [Compound I-082], the concentration for half-maximal inhibition (IC50) (Table 154) turned out to be 3800 nM. The same measure, in the same setting: with `CCOc1nc2ccc(O[C@H]3CC[C@](C)(OC[C@H](C)NC(C)=O)CC3)c(Cl)c2s1` [Compound I-083] the figure was 351 nM; with `CCOc1nc2ccc(OC[C@H]3C[C@@H](OC[C@H](C)NC(C)=O)C3)c(F)c2s1` [Compound I-086], 42 nM.

Regarding `CCOc1nc2ccc(OC[C@H]3C[C@@H](OC[C@H](C)NC(C)=O)C3)c(Cl)c2s1` [Compound I-087], the IC50 (Table 154) was found to be 65 nM.

For the compound `CCOc1nc2ccc(OC[C@H]3C[C@H](OC[C@H](C)NC(C)=O)C3)c(F)c2s1` [Compound I-088], the IC50 (Table 154) stood at 15 nM.

For the compound `CCOc1nc2ccc(OC[C@H]3C[C@H](OC[C@H](C)NC(C)=O)C3)c(Cl)c2s1` [Compound I-089], where the note is “Table 154”, the IC50 came to 62 nM.

Regarding `CC(=O)N[C@@H](C)COc1cnc(Oc2ccc(C(=O)Nc3ccc(F)cc3)c(F)c2F)cn1` [Compound I-090], the IC50 (Table 154) stood at 45 nM. As to `CCOc1nc2ccc(Oc3cnc(OC[C@H](CO)NC(C)=O)cn3)c(F)c2s1` [Compound I-092], under “Table 154”, the IC50 came out at 89 nM. On the same count and under the same terms, for `CC(=O)N[C@@H](C)CO[C@H]1CC[C@H](Oc2ccc3c(c2Cl)OCCN(CC(F)(F)F)C3=O)CC1` [Compound I-094] the value was 187 nM; for `CC(=O)N[C@@H](C)COc1cnc(Oc2ccc(C(=O)NCC(C)C)c(F)c2F)cn1` [Compound I-095], 1050 nM. Take `CC(=O)N[C@@H](C)COc1cnc(Oc2ccc(C(=O)N3CCCCC3)c(F)c2F)cn1` [Compound I-096]: the IC50 (Table 154) was 775 nM.

In the case of `CC(=O)N[C@@H](C)CO[C@H]1C[C@H](COc2ccc3nc(C(C)(F)F)sc3c2F)C1` [Compound I-097], the IC50 (Table 154) worked out at 97 nM. The same measure, in the same setting: with `CC(=O)N[C@@H](C)CO[C@H]1C[C@H](COc2ccc3nc(C(C)(C)O)sc3c2F)C1` [Compound I-099] the figure was 148 nM; with `CCOc1nc2cc(Cl)c(OC[C@H]3C[C@H](OC[C@H](C)NC(C)=O)C3)cc2s1` [Compound I-100], 27 nM; with `CCOc1nc2ccc(OC[C@H]3C[C@H](OC[C@H](C)NC(C)=O)C3)cc2s1` [Compound I-101], 26 nM. Same read-out and setting: for `CC(=O)N[C@@H](C)CO[C@H]1CC[C@H](Oc2ncc(-c3ccccc3)cc2F)CC1` [Compound I-102] the value was 44 nM; for `CC(=O)N[C@@H](C)CO[C@H]1CC[C@H](Oc2ncc(-c3ccccc3)cc2Cl)CC1` [Compound I-104], 12 nM. `CC(=O)N[C@@H](C)CO[C@H]1CC[C@H](Oc2ncc(-c3ccccc3)cc2C#N)CC1` [Compound I-105]: where the note is “Table 154”, the 50% inhibitory concentration (IC50) is 182 nM.

In the case of `CC(=O)N[C@@H](C)CO[C@H]1C[C@H](COc2ccc3nc(C(C)(F)F)sc3c2F)C1` [Compound I-107], for the setting “Tables 155-159”, the IC50 is 97 nM. Regarding `CC(=O)N[C@@H](C)CO[C@H]1C[C@H](COc2ccc3nc(C(C)(F)F)sc3c2Cl)C1` [Compound I-108], the IC50 (Tables 155-159) is 792 nM. As for `CC(=O)N[C@@H](C)CO[C@H]1C[C@H](COc2ccc3nc(C(C)(C)O)sc3c2F)C1` [Compound I-109], the half-inhibitory concentration (IC50) (Tables 155-159) was determined as 148 nM. For the compound `CCOc1nc2cc(Cl)c(OC[C@H]3C[C@H](OC[C@H](C)NC(C)=O)C3)cc2s1` [Compound I-110], the IC50 (Tables 155-159) is 27 nM.

Regarding `CCOc1nc2ccc(OC[C@H]3C[C@H](OC[C@H](C)NC(C)=O)C3)cc2s1` [Compound I-111], the IC50 (Tables 155-159) came out at 26 nM. With `CC(=O)N[C@@H](C)CO[C@H]1CC[C@H](Oc2ccc3nc(OC(C)CF)sc3c2Cl)CC1` (stereo partly shown) [Compound I-112], the concentration for half-maximal inhibition (IC50) (Tables 155-159) came out at 31 nM. On to `CC(=O)N[C@@H](C)CO[C@H]1CC[C@H](Oc2ccc3nc(OC(C)C)sc3c2Cl)CC1` [Compound I-113], for which the IC50 (Tables 155-159) turned out to be 10 nM. For `CC(=O)N[C@@H](C)CO[C@H]1CC[C@H](Oc2cc3sc(OC(C)C)nc3cc2Cl)CC1` [Compound I-114], the IC50 (Tables 155-159) came to 193 nM. As to `CCOc1nc2ccc(OC[C@]3(F)C[C@@H](OC[C@H](C)NC(C)=O)C3)c(F)c2s1` [Compound I-115], the IC50 (Tables 155-159) was determined as 12 nM. Turning to `CCOc1nc2ccc(OC[C@]3(F)C[C@@H](OC[C@H](C)NC(C)=O)C3)c(Cl)c2s1` [Compound I-116], the half-inhibitory concentration (IC50) (Tables 155-159) amounted to 41 nM. As to `CC(=O)N[C@@H](C)CO[C@H]1CC[C@H](Oc2ccc3nc(C4(F)CC4)sc3c2F)CC1` [Compound I-117], under “Tables 155-159”, the IC50 worked out at 7 nM. As to `CC(=O)N[C@@H](C)CO[C@H]1CC[C@H](Oc2ccc3nc(OC4CC4)sc3c2F)CC1` [Compound I-118], the concentration for half-maximal inhibition (IC50) (Tables 155-159) came out at 10 nM. For `CC(=O)N[C@@H](C)CO[C@H]1CC[C@H](Oc2ccc3nc(OCC4CC4)sc3c2F)CC1` [Compound I-119], the IC50 (Tables 155-159) turned out to be 4 nM. Regarding `CC(=O)N[C@@H](C)CO[C@H]1CC[C@H](Oc2ccc3nc(OCC4(F)COC4)sc3c2F)CC1` [Compound I-120], the IC50 (Tables 155-159) was 22 nM. In the case of `CC(=O)N[C@@H](C)CO[C@H]1CC[C@H](Oc2ccc3nc(OCC(F)(F)F)sc3c2F)CC1` [Compound I-121], the IC50 (Tables 155-159) is 9 nM.

For the compound `CC(=O)N[C@@H](C)CO[C@H]1CC[C@H](Oc2ccc3nc(OC(C)C)sc3c2F)CC1` [Compound I-122], where the note is “Tables 155-159”, the IC50 is 12 nM. On to `CC(=O)N[C@@H](C)CO[C@H]1CC[C@H](Oc2ccc3nc(OCC(F)F)sc3c2F)CC1` [Compound I-123], for which the IC50 (Tables 155-159) worked out at 15 nM. With `CC(=O)N[C@@H](C)CO[C@H]1CC[C@H](Oc2ccc3nc(Cl)sc3c2F)CC1` [Compound I-124], the IC50 (Tables 155-159) was 37 nM. `CC(=O)N[C@@H](C)CO[C@H]1CC[C@H](Oc2ccc3nc(OC4(C)CC4)sc3c2F)CC1` [Compound I-125]: the IC50 (Tables 155-159) was 29 nM. Still for that read-out and setting: for `CC(=O)N[C@@H](C)CO[C@H]1C[C@H](COc2cc3sc(C(C)C)nc3cn2)C1` [Compound I-126] the value was 398 nM; for `CC(=O)N[C@@H](C)CO[C@H]1C[C@H](COc2ccc3nc(C(C)C)sc3c2F)C1` [Compound I-127], 84 nM.

With `CC(=O)N[C@@H](C)CO[C@H]1C[C@H](COc2ccc3nc(C(C)C)sc3c2)C1` [Compound I-128], the half-maximal inhibitory concentration (IC50) (Tables 155-159) amounted to 50 nM. As to `CC(=O)N[C@@H](C)CO[C@H]1CC[C@H](Oc2ccc3nc(OCC(C)(C)O)sc3c2F)CC1` [Compound I-129], the IC50 (Tables 155-159) was determined as 139 nM.

On to `CC(=O)N[C@@H](C)CO[C@H]1CC[C@H](Oc2ccc3nc(OC4COC4)sc3c2F)CC1` [Compound I-130], for which, for the setting “Tables 155-159”, the IC50 came out at 57 nM.

Regarding `CC(=O)N[C@@H](C)CO[C@H]1CC[C@H](Oc2ccc3nc(OCC(C)(C)OC4CCCCO4)sc3c2F)CC1` (stereo partly shown) [Compound I-131], under “Tables 155-159”, the IC50 stood at 334 nM.

The values are drawn from patent US10150728B2, “Alkylene derivatives” (Shionogi & Co., Ltd., priority 2013, dated 2018).
